# Patent US20210147842A1, “METHODS AND COMPOSITIONS FOR INHIBITING NECROPTOSIS IN NEUROVASCULAR AND/OR NEURODEGENERATIVE DISEASES OR DISORDERS” (President and Fellows of Harvard College, priority 2019, published 2021)
# Peptide text beside a SMILES is read from it. * marks the point of attachment. Cbz = O=C(OCc1ccccc1)*
# How the values were obtained:
# Assay type in all cases: cell-based, mouse
# A20 = A20 protein level and degradation in bEnd.3 cells (western blot, cycloheximide chase); conditions: for A20 protein levels in Nat1-KD cells: Nat1-KD bEnd.3 cells, chloroquine 10 uM, E64d 5 ug/ml, sodium acetate over 24 h
# Protocol: (§1) Nat1-KD in bEnd.3 cells were conducted by lentivirus transfection with Nat1 shRNA. Ctrl group was transfected with lentivirus expressing scrambled shRNA. The efficiency of Nat-1 KD was confirmed by western blotting (WB). TNFα(100 ng/ml) was applied in Ctrl or Nat-KD cells for 24 h with or without Ripk1 inhibitor, Nec1s (10 uM). Cell death was quantified with SYTOX green staining. […] Using Tandem Mass Tag (TMT) isobaric labeling mass spectrometry (MS), we identified 7707 proteins in Nat1-KD and Ctrl bEND.3 cells. […] Nat1-KD or Ctrl bEnd.3 cells were treated with Flag-TNFα (50 ng/ml) as the indicated time course. Ripk1 activation was examined by the blotting of p-S166 Ripk1 for cell lysates.
# Panels b and c show bEnd.3 cells treated with cycloheximide (CHX, 250 ug/ml) to investigate the degradation kinetics of A20. […] Panels e and f show Chloroquine (CQ, 10 uM) and E64d (5 ug/ml) applied for inhibiting lysosomal protein degradation.
# (§2) Since A20 is an important suppressor of RIPK1 activation, RIPK1 activation and Complex I assembly were next assessed in Nat1-KD or Ctrl bEnd.3 cells treated with TNFα.
# To understand the mechanism by which A20 is decreased in Nat1-KD cells, it was first assessed whether this alteration was occurring at the protein or mRNA level. […] Nat1-KD and Ctrl bEnd.3 cells were treated with cycloheximide to investigate the kinetics of A20 degradation.
# Nat1 mRNA = Nat1 mRNA expression in bEnd.3 cells; conditions: for insulin-induced Nat1 mRNA up-regulation: applied half an hour prior to insulin, MK-2206 5 uM, rapamycin 250 nM, oligomeric Aβ1-42 100 nM
# Text: FIG. 7: N-acetyltransferase 1 (Nat1) expression decreases in the brain ECs of AD. […] Fluorescence activated cell sorting (FACS) was used to isolate ECs (CD31^high and CD45^low) from single cell suspensions of brain tissues. The differentially expressed genes between APP/PS1 and WT groups were compared using edgeR and 116 genes were identified. […] Panels c and d show the expression of Nat1 protein (mouse)/Nat2 protein (human) in brain microvessels decreases during AD pathogenesis. Microvessels from mouse or human brains were isolated as described in Munikoti, et al. Journal of neuroscience methods 207, 80-85 (2012) and Boulay et al. Journal of visualized experiments: JoVE, e53208 (2015). […] Different concentrations of insulin were applied into the culture medium for 18 h. […] MK-2206(5 uM, Akt inhibitor), Repamycin (250 nM, mTOR inhibitor) or oligomeric Aβ1-42 (100 nM) was applied to the culture medium of bEnd.3 cells half an hour prior to the treatment of insulin.
# To understand the mechanisms that mediate cerebral EC death and dysfunction in the pathogenesis of AD, fluorescence-activated cell sorting (FACS) was used to isolate ECs from the cerebrum of wild-type (WT) and APPswePSEN1dE9 (APP/PS1) mice (5-6 months of age). RNA sequencing (RNAseq) was used to profile gene expression between these groups, and differential gene expression was analyzed using edgeR (as described in Robinson, M. D., et al. Bioinformatics 26, 139-140 (2010)) (FIG. 7A). […] The decrease in Nat1 mRNA expression in cerebral ECs during AD pathogenesis was further confirmed by quantitative PCR (qPCR) (FIG. 7B). […] To validate the relevance of this finding in human AD pathogenesis, protein levels of NAT2 (the human homolog of mouse NAT1) in microvessels isolated from the brains of AD patients were assessed and compared to age-matched controls. […] To determine whether Nat1 expression might also be insulin-sensitive in immortalized mouse cerebral ECs (bEnd.3 cells), it was assessed whether increased concentrations of insulin could upregulate Nat1 (FIG. 7E).
# bEnd.3 cells = experiment: TNFα-induced cell death in bEnd.3 cells (SYTOX green); conditions: Nat1-KD bEnd.3 cells, TNFα 100 ng/ml; Nec1s 10 uM, 24 h; sodium acetate in culture medium
# Protocol: Nat1-KD in bEnd.3 cells were conducted by lentivirus transfection with Nat1 shRNA. Ctrl group was transfected with lentivirus expressing scrambled shRNA. The efficiency of Nat-1 KD was confirmed by western blotting (WB). […] Cell death was quantified with SYTOX green staining. […] Ripk1 activation was examined by the blotting of p-S166 Ripk1 for cell lysates.
# Mitochondria was stained with MitoTracker and imaged in live cells. […] For lysine acetylation, we first of all adjusted the protein concentrations to equalize A20 input in cell lysates of ctrl and Nat1-KD groups. Anti-acetylated lysine antibody was used for IP and anti-A20 antibody was used for WB.
# [1] = test system: acetyl coenzyme A (acetyl-CoA); experiment: Acetyl-CoA concentration in bEnd.3 cells; conditions: Nat1-KD bEnd.3 cells, sodium acetate over 24 h
# Protocol: FIG. 9A-H: Decreased acetylation of A20 promotes the susceptibility of Nat-1 KD cells to TNFα induced cell death. […] Mitochondria was stained with MitoTracker and imaged in live cells. The scale bar represents 20 and 5 um, respectively. […] For N-terminal acetylation, subtiligase reaction as described in Yi et al. Cell 146, 607-620 (2011) was used. Biotin was added into the free N-terminal residue. […] For lysine acetylation, we first of all adjusted the protein concentrations to equalize A20 input in cell lysates of ctrl and Nat1-KD groups. Anti-acetylated lysine antibody was used for IP and anti-A20 antibody was used for WB. […] Nat1-KD bEnd.3 cells were treated with flag-TNFα (100 ng/ml) as the indicated time course. […]
# Analysis of Nat1 knockout mice previously reported increased mitochondrial damage and fragmentation (Camporez, J. P. et al. Proceedings of the National Academy of Sciences of the United States of America 114, E11285-E11292 (2017)). […] Since Nat1 deficiency affects metabolism which may affect the cellular levels of acetyl-CoA, the concentration of total acetyl-CoA in Nat1-KD cells was determined. […] Further, supplementation with sodium acetate is also able to rescue the hyperactivation of RIPK1 in Nat1-KD cells in response to TNFα, as measured by RIPK1 ubiquitination (FIG. 9G). […]
# RIPK1 = RIPK1 activation (p-S166, ubiquitination in complex I) in TNFα-treated bEnd.3 cells; conditions: Nat1-KD bEnd.3 cells, sodium acetate 100 mM, flag-TNFα 100 ng/ml
# Protocol: as §1
# Mitochondria was stained with MitoTracker and imaged in live cells. […] For N-terminal acetylation, subtiligase reaction as described in Yi et al. Cell 146, 607-620 (2011) was used. Biotin was added into the free N-terminal residue. […] For lysine acetylation, we first of all adjusted the protein concentrations to equalize A20 input in cell lysates of ctrl and Nat1-KD groups. Anti-acetylated lysine antibody was used for IP and anti-A20 antibody was used for WB. […]
# as §2
compound,measurement,setting,value
CCOC(=O)[C@H]1O[C@@H]1C(=O)N[C@@H](CC(C)C)C(=O)NCCC(C)C [E64D],A20 protein levels in Nat1-KD cells,A20,rescued
CC(C)C[C@@H](C=O)NC(=O)[C@H](CC(C)C)NC(=O)[C@H](CC(C)C)NC(=O)OCc1ccccc1 [MG132] (Cbz-Leu-Leu-Leu-aldehyde),protein expression of A20,"A20; both Ctrl and Nat1-KD bEnd.3 cells, MG132 10 uM",reduced
NC1(c2ccc(-c3nc4ccn5c(=O)[nH]nc5c4cc3-c3ccccc3)cc2)CCC1 [MK-2206],insulin-induced Nat1 mRNA up-regulation,Nat1 mRNA,negated
insulin: exogenous insulin applied into the culture medium,Nat1 mRNA expression,"Nat1 mRNA; different concentrations in culture medium, 18 h",increases
CC(=O)[O-].[Na+] [sodium acetate],TNFα-induced cell death in Nat1-KD cells,bEnd.3 cells,rescues
same,A20 protein levels in Nat1-KD cells,A20,rescue
same,acetyl-CoA in Nat1-KD cells,[1],rescue
same,"hyperactivation of RIPK1 in response to TNFα, as measured by RIPK1 ubiquitination",RIPK1,rescue
oligomeric Aβ1-42: oligomeric amyloid beta 1-42,insulin-induced Nat1 mRNA up-regulation,Nat1 mRNA,blocked
CN1C(=O)NC(Cc2c[nH]c3c(Cl)cccc23)C1=O (centres unmarked) [Nec-1s],TNFα-induced cell death in Nat1-KD cells,bEnd.3 cells,rescued
CCN(CC)CCCC(C)Nc1ccnc2cc(Cl)ccc12 (centres unmarked) [chloroquine],A20 protein levels in Nat1-KD cells,A20,rescued
